Tests used:
IL-6 = experiment: U937 macrophages exposed to inhibitor-embedded scaffold with LPS, IL-6 ELISA; type: cell-based, human; settings: inhibitor released from PLGA-collagen scaffold; LPS 100 ng/ml; 24 hrs
Experimental: (§1) FIGS. 9A-B. Human U937 macrophages were exposed to control scaffold, PD98059-embedded scaffold, or SB203580-embedded scaffold in the presence or absence of LPS (100 ng/ml) for 24 hrs. After the exposure, culture medium was collected for ELISA to quantify IL-6 (A) or MMP-1 (B).

AP-1 = AP-1 DNA-binding activity, electrophoretic mobility shift assay on nuclear proteins of U937 macrophages; type: cell-based, human; settings: 10 μM PD98059, 100 ng/ml LPS, 24 h
Experimental: (§2) FIGS. 2A-D. A. E. coli and A. actinomycetemcomitans LPS activate MAPK pathways in macrophages. RAW 264.7 cells were stimulated for 15 min with LPS and whole cell lysates were used for Western blot analysis. […] B. A. actinomycetemcomitans LPS stimulation of IL-6 requires p38 MAPK signaling. Wild-type and p38 MAPK deficient cells were stimulated with A. actinomycetemcomitans LPS for 24 hrs (white bars). Cells were rescued with pcDNA containing p38a cDNA (p38α) in p38^−/− cells but the dominant negative mutant (p38AF) was not able to restore LPS-induced IL-6 expression. C. […] U937 macrophages were treated with 100 ng/ml of LPS in the presence or absence of 10 μM of PD98059 for 24 h. After the treatment, MMP-1 in culture medium was quantified by ELISA. D. Nuclear proteins were extracted from cells for electrophoretic mobility shift assay to determine AP-1 DNA-binding activity.

MMP-1 [1] = experiment: U937 macrophages exposed to inhibitor-embedded scaffold with LPS, MMP-1 ELISA; type: cell-based, human; settings: inhibitor released from PLGA-collagen scaffold; LPS 100 ng/ml; 24 hrs
Experimental: as §1

MMP-1 [2] = settings: rabbit model of osteoarthritis; cited from earlier work
MMP-1 [3] = experiment: LPS-stimulated MMP-1 expression in U937 macrophages, ELISA of culture medium; type: cell-based, human; settings: 10 μM PD98059, 100 ng/ml LPS, 24 h
Experimental: as §2

MMP expression = settings: macrophages, fibroblasts, endothelial cells, epithelial cells; cited from earlier work
[4] = Isoelectric point / hydrophobicity; type: physicochemical
[5] = collagen; with literature reference 123; cited from earlier work

Compound	IL-6 in LPS stimulated cultures (IL-6)	MMP-1 in LPS stimulated cultures (MMP-1 [1])	MMP expression (MMP expression)	other results
COc1cccc(-c2cc(=O)c3ccccc3o2)c1N [PD98059]	significant inhibition	significant inhibition	inhibit MMP expression	AP-1 DNA-binding activity (AP-1): inhibitory effect; MMP-1 production by chondrocytes (MMP-1 [2]): decreased MMP-1 production; LPS-stimulated MMP-1 expression (MMP-1 [3]): inhibitory effect; Hydrophobicity [4]: hydrophobic
C[S+]([O-])c1ccc(-c2nc(-c3ccncc3)c(-c3ccc(F)cc3)[nH]2)cc1 (centres unmarked) [SB203580]	significant inhibition	significant inhibition		
N#CC(=C(/N)Sc1ccccc1N)/C(C#N)=C(\N)Sc1ccccc1N [U0126]			inhibit MMP expression	
Collagen				Isoelectric point [5]: 5.5

From patent publication US20110038921A1, “METHODS AND COMPOSITIONS FOR TEMPORAL RELEASE OF AGENTS FROM A BIODEGRADABLE SCAFFOLD” (Clemson University Research Foundation, priority 2009, published 2011)
